This note sets out measurements from patent US11584760B2, “Dithio ETP derivatives” (priority 2016, dated 2023).

Data set [1] deals with DU145 (human prostate cancer). As to the kind of experiment: in vitro cytotoxicity against DU145 cancer cell line. The class given is cell-based. The conditions noted are these: DU145 cells; for in vitro cytotoxicity (activity against the cancer cell line): data shown in FIG. 2. Here is the method:
(§1) FIGS. 2A and 2B. In vitro cytotoxicity against two invasive cancer cell lines, DU145 (human prostate cancer) and A2058 (human melanoma) were determined for different analogs.
(§2) Four examples of compounds of structure II with R═—C(O)R or —C(O)OR′ were prepared as depicted in FIG. 2 and their in vitro cytotoxicity against two invasive cancer cell lines, DU145 (human prostate cancer) and A2058 (human melanoma) were determined.

Another data set concerns A2058 (human melanoma). Put plainly: in vitro cytotoxicity against A2058 cancer cell line. The class given is cell-based. The conditions noted are these: A2058 cells; for in vitro cytotoxicity (activity against the cancer cell line): data shown in FIG. 2. As to the method:
as §1, §2

In data set [2] the test system is Hut 78 cells (cutaneous T-cell lymphoma, CTCL). Put plainly: CTCL tumor model: Hut 78 cells injected subcutaneously into NSG mice. The class given is in vivo. The conditions noted are these: 20 mg/kg orally (gavage), 3 consecutive days/week; treatment started at tumor size approx. 200 mm^3; vs vehicle. Here is the method:
NSG (NOD. Cg-Prkdcscid II2rgtm1Wjl/SzJ) mice (5 to 7 weeks of age) were obtained from an-animal in-house breeding facility. The facility mice stock derived from mice obtained from Jackson Laboratory. All animal experiments were conducted in accordance with protocol approved by the City of Hope Beckman Research Institute IACUC.
CTCL tumor model: 3 million of Hut 78 cells in 100 μl (cells in PBS:Matrigel=1:1) injected subcutaneously.
The compound stock of 60 mg/ml was made in DMSO and diluted to 2 mg/ml in 30% Solutol. The compound was administered orally (by gavage) at 10 μl per gram of mice body weight in a dose of 20 mg/kg for 3 consecutive days/week.
100 μl of 3×10^6 Hut78 cells were injected subcutaneously into mice left flanks. The treatments were initiated when the tumor size reached approximately 200 mm^3. The compound or the vehicle alone were administered for 3 consecutive days/week.

Molecules are shown by their SMILES.

In the case of `CN1C(=O)[C@@]2(SC(=O)c3ccccc3)C[C@](C)(C#N)[C@H](c3ccc4c(c3)OCO4)N2C(=O)[C@]1(C)SC(=O)c1ccccc1` (relative stereo) [LEO-16-1836], the “in vitro cytotoxicity (activity against the cancer cell line)” value (from here on “in vitro cytotoxicity”) (in data set [1]; in the data set on A2058 (human melanoma)) was “good activity” each time.
Take `CC(=O)S[C@@]1(C)C(=O)N2[C@@H](c3ccc4c(c3)OCO4)[C@@](C)(C#N)C[C@]2(SC(C)=O)C(=O)N1C` (relative stereo) [LEO-16-1833, Rel-S, S′-((3S,6S,7S,8aS)-6-(benzo[d][1,3]dioxol-5-yl)-7-cyano-2,3,7-trimethyl-1,4-dioxohexahydropyrrolo[1,2-c]pyrazine-3,8a(6H)-diyl) diethanethioate]: the “activity compared with the corresponding ETP structure I (p=2)” value (in data set [1] (FIG. 2); with A2058 (human melanoma) (FIG. 2)) was “nearly identical” each time. Further, the “in vitro cytotoxicity” value (in data set [1]; with A2058 (human melanoma)) was “good activity” each time.
On to `CC(=O)S[C@@]1(C)C(=O)N2[C@@H](c3ccc4c(c3)OCO4)[C@@](C)(C#N)C[C@]2(SC(C)=O)C(=O)N1C` [LEO-16-1845, S,S′-((3S,6S,7S,8aS)-6-(benzo[d][1,3]dioxol-5-yl)-7-cyano-2,3,7-trimethyl-1,4-dioxohexahydropyrrolo[1,2-c]pyrazine-3,8a(6H)-diyl) diethanethioate], for which the “inhibition of the tumor size” value in data set [2] was found to be 86.5%.
Take `CN1C(=O)[C@@]2(SC(=O)Cc3ccccc3)C[C@](C)(C#N)[C@H](c3ccc4c(c3)OCO4)N2C(=O)[C@]1(C)SC(=O)Cc1ccccc1` (relative stereo) [LEO-16-1835]: the “in vitro cytotoxicity” value (in data set [1]; with A2058 (human melanoma)) was “good activity” throughout.
